These results are taken from US20050106554A1, “Cryopreservation of pluripotent stem cells” (priority 2003, published 2005).

For data set [1], the system named is HES cells. In words: Trypan blue exclusion after cryopreservation of HES colonies in suspension. In kind it is cell-based, human. The following applies: DMSO 0 to 10% in freezing medium, Trypan blue (FIG. 1). Here is the method: In order to cryopreserve ES cells in suspension, cells were grown to approximately 1000-10,000 cell colonies on Matrigel™ or a MEF feeder layer. Average colony size was determined by counting colony number in a representative sample, then dispersing cells in the colony by treatment with 10 mg/ml dispase and counting cell number. 1 mg/ml collagenase was used to detach colonies from the plate and the colonies were resuspended in freezing medium containing FBS, DMSO and CM at varying concentrations. Cells were not dispersed during freezing. The solution was not seeded to form extracellular ice. 1 ml of 1-3×10^5 cells/ml were placed in a cryovial and frozen at approximately −1° C. per minute. Initial studies were performed by placing cells in a Nalgene Cryo 1° C. freeze container in a −80° C. freezer, and later samples were frozen in a controlled-rate freezer (Forma Scientific, Model 8026). […] After reaching −80° C., cells were stored in liquid nitrogen. HES cells were harvested from a flat-bottomed 24-well tissue culture plate coated with Matrigel™ by addition of trypsin-EDTA (0.25% trypsin, 1 mM EDTA) until colonies were completely dispersed. HES cells were resuspended in 500 μl HES medium containing 10% FBS. […] Total cell number and the fraction of cells that incorporated Trypan blue were counted on a hemacytometer. […]

Data set [2] concerns HES cells. In words: Cell viability by MTT and Alamar blue assays after cryopreservation of adherent HES colonies. Type of data set: cell-based, human. Here is the method:
In this example, cells were grown to approximately 1000-10,000 cell colonies on Matrigel™ or a MEF feeder layer in a 24 well plate. Average colony size was determined by counting colony number in a representative sample, then dispersing cells in the colony by treatment with 10 mg/ml dispase and counting cell number. The growth medium was aspirated from each well and a top layer of Matrigel™ was poured over the adherent colonies by diluting 6 mg Matrigel™ in 12 ml CM/F+ (conditioned medium+bFGF) and adding 0.5 ml to each well of the 24 well plate. The plate was incubated at 37° C. in a humidified 5% CO2 incubator for 1 hr and the Matrigel™ solution was aspirated from the plate. Then, 0.5 ml growth medium (HES or CM/F+ was added to each well and cells were cultured in the Matrigel™ for up to 2 days. Growth medium was aspirated from each well and 0.5 ml freezing medium containing varying concentrations of FBS, DMSO, and CM was added to each well. The fresh freezing medium was made on the day of freezing. The freezing medium generally contains 10% DMSO, 30% FBS and 60% conditioned HES media. The medium on the plate was aspirated off and replaced with 0.5 ml freezing medium.
The plate was sealed with parafilm and frozen to −80° C. at −1° C. per minute. Initial studies were performed by placing cells in a parafilm-sealed Styrofoam box in a −80° C. freezer, and later samples were frozen in a controlled-rate freezer (Model 8026, Forma Scientific). […] The solution was not seeded to form extracellular ice. The plates containing the cells were then transferred to liquid nitrogen and stored 5-7 days, which was long enough to stabilize the cells but permitted a reasonable experimental throughput.
To thaw the ES cells, plates were placed in a 37° C. water bath and swirled to thaw as rapidly as possible. After thawing, 1 ml fresh CM/F+ medium was added in a drop-wise manner to each well, then aspirated. Fresh media (0.5 ml) was added to each well and the cells were incubated at 37° C. in a humidified 5% CO2 incubator. […]
HES cells were cultured grown on flat-bottomed 24-well tissue culture plates coated with Matrigel™, with 0.5 ml CM/F+ in each well. […] Within an hour, absorbance at 595 nm was measured on a plate reading spectrophotometer (TECAN Genios). A standard curve for the MTT assay (not shown) was generated by growing HES colonies to different concentrations, ranging from 5×10^4 cells per well to 2×10^6 cells per well (determined by counting dispersed cells on a hemacytometer) on a Matrigel™-coated 24 well plate.
HES cells were cultured on flat-bottomed 24-well tissue culture plates coated with Matrigel™, with 0.5 ml CM/F+ in each well. […] Then absorbance was measured on a TECAN Genios plate reader at 595 nm. […]
(In general: Resazurin is reduced to fluorescent resorufin, in cell work by metabolically active cells.)

The test system of data set [3] is HES colonies. The data set is described as follows: Colony recovery (colony count) after cryopreservation of adherent HES colonies. In kind it is cell-based, human. The following applies: adherent without top Matrigel layer, 5 days after thawing. Here is the method: In addition to providing higher cell viability, cryopreservation of adherent colonies increases the number of colonies that are able to remain attached to the surface and eventually grow (i.e., higher recovery rate). […] In referring to FIG. 4, approximately 10^6 HES cells were cultured in the well of a Matrigel™-coated 24 well plate. Colonies in sample a were harvested from the plate as intact colonies (were not dispersed) and suspended in cryopreservation media containing 10% DMSO, 30% FBS, and 60% CM/F+. Samples b-e were preserved attached to the Matrigel™ layer in the same cryopreservation media. Sample b was preserved without an additional layer of Matrigel™ poured over the cells prior to freezing, c with a Matrigel™ layer poured 1 hr prior to freezing, d with a Matrigel™ layer poured 24 hr prior to freezing, and e with a Matrigel™ layer poured 48 hr prior to freezing. All samples were stored in liquid nitrogen and thawed after 3 days, then grown for 1-2 weeks. Colonies were then counted to determine colony recovery. Error bars represent SEM for at least four independent trials.
Loading cells with 35 mM trehalose for 24 hours prior to freezing, and then freezing in medium containing DMSO results in an increase in the number of adherent colonies following thawing; virtually all colonies remain attached to the surface and can grow (FIG. 10). […]

Data set [4] deals with SSEA4 expression on HES cells. The data set is described as follows: SSEA4 expression on cryopreserved HES cells by flow cytometry. The following applies: attached to Matrigel, loaded with 35 mM trehalose for 1 day; 10% DMSO, 30% FBS, 60% CM/F+ medium. Type of data set: cell-based, human. On the procedure:
SSEA4 expression was determined by flow cytometry. After thawing, cells were allowed to grow on Matrigel™ in CM/F+ medium for 7 days, then colonies were removed from Matrigel™ by 1 mg/ml collagenase IV (GIBCO/BRL) treatment. Cells were dispersed by treatment with a 0.05% trypsin, 0.53 mM EDTA solution (GIBCO/BRL) for 5-10 minutes and filtered through a 40 μm mesh. 100 μl of the cell suspension containing 5×10^6 cells/ml was added to a sample tube and a control tube. 1 μl of MC813-70 (anti-SSEA4) (Kannagi et al. 1983) was added to the test tube and 5 μl of 1 mg/ml mouse IgG (Sigma) was added to the control tube. Tubes were vortexed and incubated on ice for 30 min. […] Samples were analyzed using a FACScan flow cytometer (Becton Dickinson) and Cellquest software (Becton Dickinson). […] The fluorescein signal was obtained through a 530/30 band pass filter and the mean fluorescence values for the IgG control and test samples were determined.
Furthermore, in addition to retention of OCT4 expression (see FIG. 6), applicants observed that when HES colonies were frozen in suspension in cryovials, adherent to Matrigel™, embedded in Matrigel™, and loaded with trehalose were able to maintain SSEA4 expression after recovery (FIG. 11, Table 1). […] The gated region for all samples was determined from the positive control (Sample A). […]

The subject of data set [5] is HES cells. The data set is described as follows: Toxicity of trehalose in growth medium. Particulars: cell exposure to growth medium containing trehalose. Type of data set: cell-based, human.
Data set [6] has as its system human keratinocytes. Particulars: intracellular trehalose on the order of 0.2M; cited from earlier work.
Data set [7] has as its system murine 3T3 fibroblasts. Particulars: intracellular trehalose on the order of 0.2M; cited from earlier work.
The subject of data set [8] is human pancreatic islets. The following applies: trehalose formulations added to cryopreserved islets; cited from earlier work.
Data set [9] has as its system hematopoeitic precursor cells. Particulars: trehalose added to cryopreservation media containing DMSO and FBS; cited from earlier work.

Each structure is given as a SMILES string.

On to `C[S+](C)[O-]` [DMSO, dimethyl sulfoxide], for which, in data set [1], the “protection from membrane rupture during cryopreservation” value is recorded as “protect HES cells from membrane rupture”.

As to `OC[C@H]1O[C@H](O[C@H]2O[C@H](CO)[C@@H](O)[C@H](O)[C@H]2O)[C@H](O)[C@@H](O)[C@@H]1O` [trehalose], the “increase in viability compared to DMSO alone” value in data set [2] (35 mM trehalose loaded 24 hours, 10% DMSO and FBS above 50%, p<0.05) turned out to be 25%. For the same compound, the “viability vs loading for 24 hours or not loading” value in data set [2] (35 mM trehalose loaded 48 hours) is “lower viability”. Also, the “additional protection during freezing and thawing” value in [2] (35 mM trehalose loading, 10% DMSO and FBS concentrations less than 50%) is “no additional protection”. Further, the “protection during freezing and thawing” value in [2] (35 mM trehalose loading, absence of DMSO) is “no protection”. The values for the colonies recovered in [3] (loaded with 35 mM trehalose for 24 hours) and in data set [3] (loaded with 35 mM trehalose for 48 hours) were 82%±5% and 48%±10%, respectively. For the same compound, the “Percent of cells gated (SSEA4)” value in [4] came to 81.5. Also, in [5], the “trehalose concentration in growth medium causing toxicity” value is “greater than 35 mM”. The “cells surviving a freeze-thaw cycle” value in data set [6] and in data set [7] was “approximately 75%” each time. For the same compound, the viable cell recovery entry in [8] is “doubles”. Moreover, in data set [9], the increase in viability was 7-20%.
